Numbering of substitutions follows the chain as printed.
Legend:
hVAChT K317A = molecular target: T1, hVAChT K317A (Homo sapiens, UniProt Q16572, K317A); experiment: [3H]vesamicol saturation binding; conditions: pH 7.4
T1 sequence (Q16572 1-532 K317A): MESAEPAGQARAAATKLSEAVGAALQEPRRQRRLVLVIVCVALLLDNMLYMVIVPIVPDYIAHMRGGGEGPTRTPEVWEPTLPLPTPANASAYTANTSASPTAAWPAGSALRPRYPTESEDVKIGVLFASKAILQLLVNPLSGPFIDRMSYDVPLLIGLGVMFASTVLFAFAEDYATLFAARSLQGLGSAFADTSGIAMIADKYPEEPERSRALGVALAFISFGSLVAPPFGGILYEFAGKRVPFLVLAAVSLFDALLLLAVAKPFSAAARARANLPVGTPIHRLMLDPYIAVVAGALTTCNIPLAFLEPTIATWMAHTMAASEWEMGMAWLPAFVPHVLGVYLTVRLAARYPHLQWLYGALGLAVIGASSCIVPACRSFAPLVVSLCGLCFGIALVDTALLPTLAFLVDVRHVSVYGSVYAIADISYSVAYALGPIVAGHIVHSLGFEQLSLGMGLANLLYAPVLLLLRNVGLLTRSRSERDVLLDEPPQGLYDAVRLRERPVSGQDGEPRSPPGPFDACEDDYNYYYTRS

hVAChT W315A = molecular target: T2, hVAChT W315A (Homo sapiens, UniProt Q16572, W315A); experiment: [3H]vesamicol saturation binding; conditions: pH 7.4
T2 sequence (Q16572 1-532 W315A): T1 sequence (Q16572 1-532 K317A) with W315A, A317K

hVAChT M316A = molecular target: T3, hVAChT M316A (Homo sapiens, UniProt Q16572, M316A); experiment: [3H]ACh transport; type: biochemical
T3 sequence (Q16572 1-532 M316A): T1 sequence (Q16572 1-532 K317A) with M316A, A317K

hVAChT A334F = molecular target: T4, hVAChT A334F (Homo sapiens, UniProt Q16572, A334F); experiment: ACh equilibrium binding by competition against [3H]vesamicol; conditions: pH 7.4, monophasic fit, FHA fixed to 1
T4 sequence (Q16572 1-532 A334F): T1 sequence (Q16572 1-532 K317A) with A317K, A334F

hVAChT W331A = molecular target: T5, hVAChT W331A (Homo sapiens, UniProt Q16572, W331A); experiment: as above
T5 sequence (Q16572 1-532 W331A): T1 sequence (Q16572 1-532 K317A) with A317K, W331A

SMILES | Bmax, maximal specific [3H]vesamicol binding (VAChT expression level) (hVAChT K317A) [pmol/mg] | Bmax, maximal specific [3H]vesamicol binding (VAChT expression level) (hVAChT W315A) [pmol/mg] | Vmax/Bmax, ACh transport normalized to Bmax (hVAChT M316A; pH 7.4) [min⁻¹] | Km (hVAChT M316A; read-out: KM, Michaelis-Menten constant for ACh transport, pH 7.4) [µM] | FHA, fraction of the ACh sites that have high affinity (hVAChT A334F) | ACh bound more weakly than by wild-type (hVAChT W331A; W331A hVAChT vs wild-type) [fold] | FHA, fraction of the ACh sites that have high affinity (hVAChT W331A; W331A hVAChT, pH 7.4, monophasic fit, FHA fixed to 1)
O[C@@H]1CCCC[C@H]1N1CCC(c2ccccc2)CC1 (racemic) [vesamicol, ( )-trans-2-(4-phenylpiperidino)cyclohexanol] | 21 ± 1 | 26 ± 1 |  |  |  |  | 
CC(=O)OCC[N+](C)(C)C [ACh, acetylcholine] |  |  | 8.2 ± 1.0 | 1500 ± 300 | 1.0 | 11 | 1.0

Source: publication PMC2962730 (Journal of neurochemistry, 2010)
